Laboratory results from patent US7504420B2, “Compounds which inhibit beta-secretase activity and methods of use” (CoMentis, Inc., priority 2005, dated 2009).
pIC50, pKi: −log10 of the molar value. Where two headings read alike, the source gives them in different places.

Legend:
memapsin 2 = memapsin 2 (Homo sapiens, UniProt P56817); assay: Inhibition of memapsin 2 catalytic activity (Ki); type: biochemical; conditions: memapsin 2, pH 4, 37° C.
Method: Potency of compounds were determined by measurement of their inhibition of memapsin 2 catalytic activity toward a fluorescent substrate. […] Briefly, assays were performed at pH 4, 37° C., by pre-incubation of memapsin 2 enzyme with compound for 20 minutes. Activity measure was initiated by addition of a fluorogenic substrate FS-2 (Bachem Americas, Torrance, Calif.). Fluorescent signal increase over time was measured as a rate of hydrolysis of the peptide substrate. […]

[1] = test system: Aβ production in Chinese hamster ovary cells that over-express human APP695 with the London and Swedish mutations; assay: Cellular Aβ IC50 determination (Aβ40 sandwich ELISA); conditions: Cricetulus griseus, CHO, 24 h
Method: The potency of compounds against memapsin 2 catalytic activity was determined in a cellular assay of Aβ production. […] Compounds are dissolved in DMSO to concentrations near 1 mM, and diluted into culture media to a final concentration near 4 μM (final 0.4% DMSO). Compounds were diluted serially and applied to cells in multi-well plates 48 h after seeding. Incubation was continued in 5% CO2 at 37 degrees C. for 24 h. Aliquots were removed and assayed for Aβ40 content using a sandwich ELISA (BioSource International). Amount of Aβ40 over the range of concentration of compounds, relative to control incubations, were fit to a 4-parameter IC50 model.

[2] = read-out: Cell, Aβ40, CHO cells over-expressing human APP695 (London and Swedish mutations), 24 h

Sequence of memapsin 2 (P56817 46-501): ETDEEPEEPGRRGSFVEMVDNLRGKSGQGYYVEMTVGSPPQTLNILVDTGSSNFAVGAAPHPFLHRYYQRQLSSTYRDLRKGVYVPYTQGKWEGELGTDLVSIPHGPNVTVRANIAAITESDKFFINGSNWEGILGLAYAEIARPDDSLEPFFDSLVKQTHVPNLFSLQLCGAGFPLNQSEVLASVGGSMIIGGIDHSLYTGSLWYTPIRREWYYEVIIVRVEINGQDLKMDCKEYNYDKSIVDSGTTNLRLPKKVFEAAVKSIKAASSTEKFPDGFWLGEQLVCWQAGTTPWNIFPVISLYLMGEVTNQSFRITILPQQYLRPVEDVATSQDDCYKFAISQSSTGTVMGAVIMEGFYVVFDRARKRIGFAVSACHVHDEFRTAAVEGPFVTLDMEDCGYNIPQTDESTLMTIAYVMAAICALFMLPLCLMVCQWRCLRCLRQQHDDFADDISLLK

Cc1cc(C(C)NCC(O)C(Cc2ccccc2)NC(=O)c2cc(C(=O)NC(C)c3ccccc3)cc(N(C)S(C)(=O)=O)c2)on1 (stereo not shown) [N1-(3-hydroxy-4-(1-(3-methylisoxazol-5-yl)ethylamino)-1-phenylbutan-2-yl)-5-(N-methylmethylsulfonamido)-N3-(1-phenylethyl)isophthalamide]
pKi (memapsin 2; read-out: M2K): > 6.52 | pIC50 [1, 2]: > 6.00

Cc1csc(C(C)NCC(O)C(Cc2ccccc2)NC(=O)c2cc(C(=O)NC(C)c3ccccc3)cc(N(C)S(C)(=O)=O)c2)n1 (stereo not shown) [N1-(3-hydroxy-4-(1-(4-methylthiazol-2-yl)ethylamino)-1-phenylbutan-2-yl)-5-(N-methylmethylsulfonamido)-N3-(1-phenylethyl)isophthalamide]
pKi (memapsin 2; read-out: M2K): > 6.52 | pIC50 [1, 2]: > 6.00

CC(NC(=O)c1cc(C(=O)NC(Cc2ccccc2)C(O)CNC(CO)c2ccccc2)cc(N(C)S(C)(=O)=O)c1)c1ccccc1 (stereo not shown) [N1-(3-hydroxy-4-(2-hydroxy-1-phenylethylamino)-1-phenylbutan-2-yl)-5-(N-methylmethylsulfonamido)-N3-(1-phenylethyl)isophthalamide]
pKi (memapsin 2; read-out: M2K): > 6.52 | pIC50 [1, 2]: > 6.00

COc1ccccc1CNCC(O)C(Cc1ccccc1)NC(=O)c1cccc(C(=O)N(C)Cc2nc(C)cs2)c1 (stereo not shown) [N1-(3-hydroxy-4-(2-methoxybenzylamino)-1-phenylbutan-2-yl)-N3-methyl-N3-((4-methylthiazol-2-yl)methyl)isophthalamide]
pKi (memapsin 2; read-out: M2K): < 6.30 | pIC50 [1, 2]: 5.30 to 6.00

COc1ccccc1CCNCC(O)C(Cc1ccccc1)NC(=O)c1cccc(C(=O)N(C)Cc2nc(C)cs2)c1 (stereo not shown) [N1-(3-hydroxy-4-(2-methoxyphenethylamino)-1-phenylbutan-2-yl)-N3-methyl-N3-((4-methylthiazol-2-yl)methyl)isophthalamide]
pKi (memapsin 2; read-out: M2K): < 6.30 | pIC50 [1, 2]: 5.30 to 6.00

COc1cc(CCCNCC(O)C(Cc2ccccc2)NC(=O)c2cc(C(=O)NC(C)c3ccccc3)cc(N(C)S(C)(=O)=O)c2)ccc1C (stereo not shown) [N1-(3-hydroxy-4-(3-(3-methoxy-4-methylphenyl)propylamino)-1-phenylbutan-2-yl)-5-(N-methylmethylsulfonamido)-N3-(1-phenylethyl)isophthalamide]
pKi (memapsin 2; read-out: M2K): > 6.52 | pIC50 [1, 2]: 5.30 to 6.00

COc1ccc(CCNCC(O)C(Cc2ccccc2)NC(=O)c2cc(C(=O)NC(C)c3ccccc3)cc(N(C)S(C)(=O)=O)c2)cc1O (stereo not shown) [N1-(3-hydroxy-4-(3-hydroxy-4-methoxyphenethylamino)-1-phenylbutan-2-yl)-5-(N-methylmethylsulfonamido)-N3-(1-phenylethyl)isophthalamide]
pKi (memapsin 2; read-out: M2K): > 6.52 | pIC50 [1, 2]: 5.30 to 6.00

Cc1csc(CN(C)C(=O)c2cccc(C(=O)NC(Cc3ccccc3)C(O)CNCc3cccc(CC(C)C)c3)c2)n1 (stereo not shown) [N1-(3-hydroxy-4-(3-isobutylbenzylamino)-1-phenylbutan-2-yl)-N3-methyl-N3-((4-methylthiazol-2-yl)methyl)isophthalamide]
pKi (memapsin 2; read-out: M2K): > 6.52 | pIC50 [1, 2]: > 6.00

COc1cccc(CNCC(O)C(Cc2ccccc2OC)NC(=O)c2cc(C(=O)NC(C)c3ccccc3)cc(N(C)S(C)(=O)=O)c2)c1 (stereo not shown) [N1-(3-hydroxy-4-(3-methoxybenzylamino)-1-(2-methoxyphenyl)butan-2-yl)-5-(N-methylmethylsulfonamido)-N3-(1-phenylethyl)isophthalamide]
pKi (memapsin 2; read-out: M2K): 6.30 to 6.52 | pIC50 [1, 2]: < 5.30

COc1cccc(CNCC(O)C(Cc2cscn2)NC(=O)c2cc(C(=O)NC(C)c3ccccc3)cc(N(C)S(C)(=O)=O)c2)c1 (stereo not shown) [N1-(3-hydroxy-4-(3-methoxybenzylamino)-1-(thiazol-4-yl)butan-2-yl)-5-(N-methylmethylsulfonamido)-N3-(1-phenylethyl)isophthalamide]
pKi (memapsin 2; read-out: M2K): > 6.52 | pIC50 [1, 2]: > 6.00

COc1cccc(CNCC(O)C(Cc2ccccc2)NC(=O)c2cc(C(=O)NC(C)c3nc(C)co3)cc(N(C)S(C)(=O)=O)c2)c1 (stereo not shown) [N1-(3-hydroxy-4-(3-methoxybenzylamino)-1-phenylbutan-2-yl)-5-(N-methylmethylsulfonamido)-N3-(1-(4-methyloxazol-2-yl)ethyl)isophthalamide]
pKi (memapsin 2; read-out: M2K): > 6.52 | pIC50 [1, 2]: > 6.00

COc1cccc(CNCC(O)C(Cc2ccccc2)NC(=O)c2cc(C(=O)NC(C)c3nccs3)cc(N(C)S(C)(=O)=O)c2)c1 (stereo not shown) [N1-(3-hydroxy-4-(3-methoxybenzylamino)-1-phenylbutan-2-yl)-5-(N-methylmethylsulfonamido)-N3-(1-(thiazol-2-yl)ethyl)isophthalamide]
pKi (memapsin 2; read-out: M2K): > 6.52 | pIC50 [1, 2]: > 6.00

COc1cccc(CNCC(O)C(Cc2ccccc2)NC(=O)c2cc(CS(C)(=O)=O)cc(C(=O)NC(C)c3ccccc3)c2)c1 (stereo not shown) [N1-(3-hydroxy-4-(3-methoxybenzylamino)-1-phenylbutan-2-yl)-5-(methylsulfonylmethyl)-N3-(1-phenylethyl)isophthalamide]
pKi (memapsin 2; read-out: M2K): > 6.52 | pIC50 [1, 2]: > 6.00

COc1cccc(CNCC(O)C(Cc2ccccc2)NC(=O)c2cc(C(=O)NCc3nc(CO)co3)cc(N(C)S(C)(=O)=O)c2)c1 (stereo not shown) [N1-(3-hydroxy-4-(3-methoxybenzylamino)-1-phenylbutan-2-yl)-N3-((4-(hydroxymethyl)oxazol-2-yl)methyl)-5-(N-methylmethylsulfonamido)isophthalamide]
pKi (memapsin 2; read-out: M2K): 6.30 to 6.52 | pIC50 [1, 2]: < 5.30

COc1cccc(CNCC(O)C(Cc2ccccc2)NC(=O)c2cccc(C(=O)N(Cc3nc(C)cs3)C(C)C)c2)c1 (stereo not shown) [N1-(3-hydroxy-4-(3-methoxybenzylamino)-1-phenylbutan-2-yl)-N3-isopropyl-N3-((4-methylthiazol-2-yl)methyl)isophthalamide]
pKi (memapsin 2; read-out: M2K): > 6.52 | pIC50 [1, 2]: > 6.00

COc1cccc(CNCC(O)C(Cc2ccccc2)NC(=O)c2cccc(C(=O)N(C)Cc3csc(C)n3)c2)c1 (stereo not shown) [N1-(3-hydroxy-4-(3-methoxybenzylamino)-1-phenylbutan-2-yl)-N3-methyl-N3-((2-methylthiazol-4-yl)methyl)isophthalamide]
pKi (memapsin 2; read-out: M2K): > 6.52 | pIC50 [1, 2]: > 6.00

COc1cccc(CNCC(O)C(Cc2ccccc2)NC(=O)c2cccc(C(=O)N(C)Cc3nc(C)co3)c2)c1 (stereo not shown) [N1-(3-hydroxy-4-(3-methoxybenzylamino)-1-phenylbutan-2-yl)-N3-methyl-N3-((4-methyloxazol-2-yl)methyl)isophthalamide]
pKi (memapsin 2; M2K): > 6.52 | pIC50 ([1]; read-out: Cell): > 6.00

COc1cccc(CNCC(O)C(Cc2ccccc2)NC(=O)c2cc(C(=O)N(C)Cc3nc(C)cs3)cc([N+](=O)[O-])c2)c1 (stereo not shown) [N1-(3-hydroxy-4-(3-methoxybenzylamino)-1-phenylbutan-2-yl)-N3-methyl-N3-((4-methylthiazol-2-yl)methyl)-5-nitroisophthalamide]
pKi (memapsin 2; read-out: M2K): > 6.52 | pIC50 [1, 2]: > 6.00

COc1ccc(CNCC(O)C(Cc2ccccc2)NC(=O)c2cccc(C(=O)N(C)Cc3nc(C)cs3)c2)cc1 (stereo not shown) [N1-(3-hydroxy-4-(4-methoxybenzylamino)-1-phenylbutan-2-yl)-N3-methyl-N3-((4-methylthiazol-2-yl)methyl)isophthalamide]
pKi (memapsin 2; read-out: M2K): < 6.30 | pIC50 [1, 2]: 5.30 to 6.00

COc1ccc(CCNCC(O)C(Cc2ccccc2)NC(=O)c2cccc(C(=O)N(C)Cc3nc(C)cs3)c2)cc1 (stereo not shown) [N1-(3-hydroxy-4-(4-methoxyphenethylamino)-1-phenylbutan-2-yl)-N3-methyl-N3-((4-methylthiazol-2-yl)methyl)isophthalamide]
pKi (memapsin 2; read-out: M2K): < 6.30 | pIC50 [1, 2]: 5.30 to 6.00
